Where no end group is shown, it is not given here. PEG 22kD = 22 kDa polyethylene glycol (on cysteine)
Assays:
GLP-1 receptor [1] = target: T1, GLP-1 receptor (Rattus norvegicus, UniProt P32301); experiment: Competitive binding of peptide to the GLP-1 receptor in RINm5F cell plasma membranes (125I GLP-1); details: read-out: GLP1 RIN IC50
T1 construct: endogenous in cells; host or cells: RINm5F cells
T1 sequence (P32301 22-463): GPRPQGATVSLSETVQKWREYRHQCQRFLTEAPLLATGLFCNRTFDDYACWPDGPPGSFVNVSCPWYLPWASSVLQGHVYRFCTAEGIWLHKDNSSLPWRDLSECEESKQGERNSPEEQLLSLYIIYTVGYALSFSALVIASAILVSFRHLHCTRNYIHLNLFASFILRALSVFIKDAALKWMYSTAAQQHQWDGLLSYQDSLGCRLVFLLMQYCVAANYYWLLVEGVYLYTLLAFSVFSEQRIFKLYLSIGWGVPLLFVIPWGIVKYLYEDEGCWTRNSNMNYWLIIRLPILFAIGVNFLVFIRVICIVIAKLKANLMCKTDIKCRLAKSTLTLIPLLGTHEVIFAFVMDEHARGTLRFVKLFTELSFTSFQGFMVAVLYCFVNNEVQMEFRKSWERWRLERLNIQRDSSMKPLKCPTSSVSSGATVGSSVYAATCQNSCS
Experimental: Flasks of RINm5F cells were washed with PBS, scraped in 20 mM Hepes-1 mM EDTA-250 mM sucrose buffer containing protease inhibitors (HES) and homogenized in a dounce homogenizer followed by repeated resuspension through a 23 gauge needle. Unbroken cells and nuclei were removed by centrifugation at 500×g for 5 minutes. The pellet was resuspended in HES buffer using a 23 gauge needle and the centrifugation was repeated. The supernatants from the two spins were combined and centrifuged at 40,000×g for 20 min. The resulting plasma membrane pellet was resuspended in HES buffer using a 23 gauge needle followed by a 25 gauge needle. Membranes were stored at −80° C. until use.
Competitive binding of some polypeptides of the invention to RINm5F cell plasma membranes was measured as follows. Ninety-six-well GF/C filtration plates (Millipore, Bedford, Mass.) were blocked with 0.3% PEI for at least one hour and washed twice with binding buffer consisting of 20 mM Tris, 2 mM EDTA, pH 7.5, 1 mg/ml BSA, and 1 mg/ml bacitracin. […] The plates were dried, scintillant was added to each well, and cpm per well determined using a Wallac Microbeta counter.

glucagon receptor = target: T2, glucagon receptor (Rattus norvegicus, UniProt P30082); experiment: Competitive binding of peptide to the glucagon receptor in rat liver plasma membranes (125I glucagon)
T2 construct: glucagon receptor present in the plasma membranes isolated from rat liver; from tissue; host or cells: rat liver plasma membranes
T2 sequence (P30082 27-485): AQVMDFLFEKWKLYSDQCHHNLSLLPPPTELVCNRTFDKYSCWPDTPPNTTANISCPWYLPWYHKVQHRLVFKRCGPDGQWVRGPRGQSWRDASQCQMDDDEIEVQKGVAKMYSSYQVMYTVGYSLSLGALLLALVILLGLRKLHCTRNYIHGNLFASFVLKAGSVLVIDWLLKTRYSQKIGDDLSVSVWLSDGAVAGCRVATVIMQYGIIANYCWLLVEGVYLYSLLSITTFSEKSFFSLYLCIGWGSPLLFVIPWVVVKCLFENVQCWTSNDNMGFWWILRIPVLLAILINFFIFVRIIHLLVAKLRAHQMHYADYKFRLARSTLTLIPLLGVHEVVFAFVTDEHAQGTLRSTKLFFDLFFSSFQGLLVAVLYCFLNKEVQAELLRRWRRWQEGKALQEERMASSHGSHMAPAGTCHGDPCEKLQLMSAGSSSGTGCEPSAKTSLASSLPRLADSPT
Experimental: The wet weight of the livers was determined and the tissue minced in 5 volumes of ice cold TES buffer and a slurry prepared using a polytron. All buffers and spins were kept at 4° C. The slurry was further homogenized using three strokes of a handheld dounce homogenizer. The homogenate was passed through several layers of cheesecloth and spun at 25,000×g for 10 minutes. Pellets were homogenized in 22.1 ml TES buffer using 10 strokes of a handheld dounce homogenizer. Twenty-seven point nine milliliters of 2.4 M sucrose in TE was added and mixed well. The homogenate was distributed among several tubes, and each tube was overlaid with 7 ml of TES buffer. The tubes were spun at 120,000×g for 60 minutes. The plasma membranes were removed from the interface that formed during the spin, diluted in TES and concentrated using a 15 minute spin at 200,000×g. The resulting pellet was again homogenized in 9.8 ml TES buffer, combined with 10.3 ml 2.4M sucrose, overlaid with 7 ml TES, and centrifuged at 180,000×g for 30 min. […] The final pellet was resuspended in TES. Plasma membranes were stored at −80° C. until ready for use.
Competitive binding of some polypeptides of the invention to rat liver plasma membranes was measured as follows. Ninety-six-well GF/C filtration plates (Millipore, Bedford, Mass.) were blocked with 0.1% PEI for at least one hour and washed twice with binding buffer consisting of 20 mM Tris, 2 mM EDTA, pH 7.5, 1 mg/ml BSA, and 1 mg/ml bacitracin. […] The plates were dried, scintillant was added to each well, and cpm per well determined using a Wallac Microbeta counter.

GLP-1 receptor [2] = target: T1, GLP-1 receptor; experiment: Peptide signaling through GLP-1 receptor, cAMP scintillation proximity assay in RINm5F cells; type: cell-based; details: for GLP1 Relative Potency: EC50 of native GLP-1 (7-36) divided by EC50 of polypeptide x 100, cAMP in RINm5F cells; for Emax: RIN-m5F, read-out: % GLP1 max
Experimental: The media was removed and the cells were washed twice with PBS. […] For assay of peptides conjugated with fatty acid, the BSA was omitted from the incubation buffer. The incubation buffer was removed, and the cells were lysed in the lysis reagent provided with the cAMP Scintillation Proximity Assay (SPA) direct screening assay system (Amersham Pharmacia Biotech Inc, Piscataway, N.J.). The amount of cAMP (in pmol) present in the lysates was determined following instructions provided with this kit.
The amount of cAMP (in pmol) produced at each concentration of peptide was plotted and analyzed by nonlinear regression using Prizm software to determine the EC50 for each peptide.

[3] = Intraperitoneal glucose tolerance testing (IPGTT) in rats or mice; type: in vivo; details: ipGTT in mice 3 hours post dosing with 100 μg/kg peptide
Experimental: Blood glucose levels during intraperitoneal glucose tolerance testing in rats or mice by some polypeptides of the invention were measured as follows. The in vivo activity of the polypeptides of the invention when administered subcutaneously was examined in rats or mice. Rats or mice fasted overnight were given a subcutaneous injection of control or peptide (100 μg/kg). Basal blood glucose was measured prior to administration of peptides or three or 17 hours after administration of derivatized peptides, and the rats or mice were given 2 g/kg of glucose intraperitoneally. Blood glucose was measured again after 15, 30 and 60 minutes in rats or 30 and 60 minutes in mice.

Molecule	IC50 (GLP-1 receptor [1]) [µM]	IC50 (glucagon receptor) [µM]	GLP1 Relative Potency (GLP-1 receptor [2]) [%]	Emax (GLP-1 receptor [2]) [%]	In vivo Decrease IpGTT AUC [3] [%]	% GLP1 max (GLP-1 receptor [2]; maximal cAMP activity relative to native GLP-1 (7-36), RINm5F cells) [%]
HSQGTFTSDYARYLDAKKAKEFIAWLVKGRG [G59]	0.0021	0.0975	22.7	102		
HSQGTFTSDYARYLDARRAREFIKWLVRGRC(22kD) (HSQGTFTSDYARYLDARRAREFIKWLVRGRC(PEG 22kD); listed as Homo sapiens) [G2185, 22kD PEG linked to the cysteine residue]			6.2		44	112.7
HSQGTFTSDYSKYLEGQAAKEFIAWLVKGR-NH2 [G5]	0.0005	0.243	69.9	109		
HSQGTFTSDYAKYLDARRAKEFIAWLVKGCG [G76]	0.0102	0.0591	7.7	85		
CC(C)C[C@H](NC(=O)[C@H](Cc1ccc(O)cc1)NC(=O)[C@H](CCCCN)NC(=O)[C@H](CO)NC(=O)[C@H](Cc1ccc(O)cc1)NC(=O)[C@H](CC(=O)O)NC(=O)[C@H](CO)NC(=O)[C@@H](NC(=O)[C@H](Cc1ccccc1)NC(=O)[C@@H](NC(=O)CNC(=O)[C@H](CCC(N)=O)NC(=O)[C@H](CO)NC(=O)[C@@H](N)Cc1c[nH]cn1)[C@@H](C)O)[C@@H](C)O)C(=O)N[C@@H](CC(=O)O)C(=O)N[C@@H](CO)C(=O)N[C@@H](CCCNC(=N)N)C(=O)N[C@@H](CCCNC(=N)N)C(=O)N[C@@H](C)C(=O)N[C@@H](CCC(N)=O)C(=O)N[C@@H](CC(=O)O)C(=O)N[C@@H](Cc1ccccc1)C(=O)N[C@H](C(=O)N[C@@H](CCC(N)=O)C(=O)N[C@@H](Cc1c[nH]c2ccccc12)C(=O)N[C@@H](CC(C)C)C(=O)N[C@H](C(=O)N[C@@H](CCCCN)C(=O)NCC(=O)N[C@@H](CCCNC(=N)N)C(N)=O)C(C)C)C(C)C [G1]	0.006	0.0066	6.9	112		
HSQGTFTSDYAKYLDAARAKEFIAWLVKGR-NH2 [G57]	0.0147	0.178	18.3	132		
HSQGTFTSDYAKYLDARRAKEFIAWLVKGRG [G51]	0.0082	0.154	58.1	91.2		
HSQGTFTSDYARYLDARRAREFIAWLVKGRG [G84]	0.0014	0.0117	61.8	114		
HSQGTFTSDYAKYLDARRAKEFIAWLVKCRG [G75]	0.0077	0.054	6.6	86.1		
HSQGTFTSDYAKYLDAAKAKEFIAWLVKGRG [G60]	0.0138	0.682	22.3	95.7		
HSQGTFTSDYARYLDARRAKEFIAWLVKGR-NH2 [G55]	0.0098	0.139	18.6	116		
HSQGTFTSDYARYLDARRAREFIAWLVRGRGK [G85]	0.0015	0.0161	64.5	95.8		
HSQGTFTSDYARYLDARRAREFIKWLVRGRC [G185]	0.0045	0.048	13.0	104		
HSQGTFTSDYARYLDAAKAKEFIAWLVKGRG [G61]	0.0106	0.232	12.1	96		
HSQGTFTSDYAKYLDARRAKEFIAWLVKGRC [G77]	0.0089	0.0611	9.5	92.1		
HSQGTFTSDYAKYLDAKKAKEFIAWLVKGRG [G58]	0.0069	0.163	76.1	99		
HSQGTFTSDYARYLDARRAREFIKWLVRGRG [G83]	0.0032	0.0286	29.9	89.4		
HSQGTFTSDYARYLDARRAKEFIAWLVRGRG [G82]	0.0081	0.0336	29.9	97.1		
HSQGTFTSDYAKYLDARRAKEFIAWLVCGRG [G74]	0.0044	0.0217	8.4	88.7		
HSQGTFTSDYAAYLDARRAKEFIAWLVKGR-NH2 [G56]	0.0066	0.125	37.2	115		
HSQGTFTSDYAKYLDARRACEFIAWLVKGRG [G71]	0.0058	0.0256	4.3	93.3		
